system: Jurkat IL-2 Production; test: Jurkat IL-2 Production Assay; type: cell-based; conditions: Homo sapiens, Jurkat cell (ATCC), 18-20 h incubation, PHA 5 μg/mL with 1% FBS, or PMA/Ionomycin with 30% FBS (table does not say which)
Procedure: Jurkat IL-2 Production Assay
Cell: Jurkat cell (ATCC) was grown in RPMI 1640 with 10% FBS and 1% penicillin/streptomycin. The cell density was kept at 1.2-1.8×10^6/mL in culture flask before seeding into culture plate, and the cell density in the plate was 0.5×10^6/[…]/well.
Culture media: RPMI 1640 with 1% FBS or 30% FBS for high serum assay.
Test compound: serial dilution was done in 100% DMSO, and intermediate dilution was done with RPMI 1640 medium with 1% FBS. The DMSO final concentration in culture well was 0.25%.
Stimulant: PHA (Sigma#L9017-10MG) was used for the assay with 1% FBS in culture medium, and added after 10 minutes exposure of cell to compound/DMSO. The PHA final concentration in culture well was 5 μg/mL. PMA (Sigma# P-8139 5MG)/Ionomycin (Sigma# 10634-5MG) was used for the assay with 30% FBS in culture medium, and added at same time point as the 1% FBS culture assay. The final concentration of PMA was 50 ng/mL, and Ionomycin final concentration was 500 ng/mL.
Incubation: at 37° C. with 5% CO2 and 95% humidity for 18 h˜20 h.
IC50: IC50 was calculated with the data analysis software XLfit4, General Pharmacology model 251.

| IC50 | Compound |
| --- | --- |
| 91 nM | CCn1nc(-c2cccnc2)cc1-c1ccc2[nH]c(-c3ccccc3C)cc2c1 [Example 80, 5-(2-Ethyl-5-pyridin-3-yl-2H-pyrazol-3-yl)-2-o-tolyl-1H-indole] |
| 501 nM | Cn1nc(-c2ccccn2)cc1-c1ccc2[nH]c(-c3ccccc3Cl)cc2c1 [Example 81, 2-(2-Chloro-phenyl)-5-(2-methyl-5-pyridin-2-yl-2H-pyrazol-3-yl)-1H-indole] |
| 367 nM | Cn1nc(-c2ccccn2)cc1-c1ccc2[nH]c(-c3cc(F)ccc3Cl)cc2c1 [Example 82, 2-(2-Chloro-5-fluoro-phenyl)-5-(2-methyl-5-pyridin-2-yl-2H-pyrazol-3-yl)-1H-indole] |
| 358 nM | Cn1nc(-c2ccccn2)cc1-c1ccc2[nH]c(-c3ccc(F)cc3Cl)cc2c1 [Example 83, 2-(2-Chloro-4-fluoro-phenyl)-5-(2-methyl-5-pyridin-2-yl-2H-pyrazol-3-yl)-1H-indole] |
| 399 nM | Cn1nc(-c2cccnc2)cc1-c1ccc2[nH]c(-c3cccc(F)c3F)cc2c1 [Example 84, 2-(2,3-Difluoro-phenyl)-5-(2-methyl-5-pyridin-3-yl-2H-pyrazol-3-yl)-1H-indole] |
| 149 nM | Cn1nc(-c2cccnc2)cc1-c1ccc2[nH]c(-c3cccc(Cl)c3Cl)cc2c1 [Example 85, 2-(2,3-Dichloro-phenyl)-5-(2-methyl-5-pyridin-3-yl-2H-pyrazol-3-yl)-1H-indole] |
| 118 nM | Cn1nc(-c2cccnc2)cc1-c1ccc2[nH]c(-c3ccc(F)cc3Cl)cc2c1 [Example 86, 2-(2-Chloro-4-fluoro-phenyl)-5-(2-methyl-5-pyridin-3-yl-2H-pyrazol-3-yl)-1H-indole] |
| 135 nM | Cn1nc(-c2cccnc2)cc1-c1ccc2[nH]c(-c3cc(Cl)ccc3Cl)cc2c1 [Example 87, 2-(2,5-Dichloro-phenyl)-5-(2-methyl-5-pyridin-3-yl-2H-pyrazol-3-yl)-1H-indole] |
| 908 nM | COC(=O)c1ccc(-c2ccc3[nH]c(-c4c(F)cccc4F)cc3c2)c(Cl)c1 [Example 88, 4-[2-(2,6-Difluoro-phenyl)-1H-indol-5-yl]-3-chloro-benzoic acid methyl ester] |
| 451 nM | Cc1cc(C(N)=O)ccc1-c1ccc2[nH]c(-c3c(F)cccc3F)cc2c1 [Example 89, 4-[2-(2,6-Difluoro-phenyl)-1H-indol-5-yl]-3-methyl-benzamide] |
| 177 nM | COc1ccc(-c2ccc3[nH]c(-c4c(F)cccc4F)cc3c2)c(OC)c1 [Example 90, 2-(2,6-Difluoro-phenyl)-5-(2,4-dimethoxy-phenyl)-1H-indole] |
| 456 nM | Cc1cc(F)ccc1-c1ccc2[nH]c(-c3c(F)cccc3F)cc2c1 [Example 91, 2-(2,6-Difluoro-phenyl)-5-(4-fluoro-2-methyl-phenyl)-1H-indole] |
| 188 nM | Fc1cccc(F)c1-c1cc2cc(-c3ccc(C(F)(F)F)cc3C(F)(F)F)ccc2[nH]1 [Example 92, 5-(2,4-Bis-trifluoromethyl-phenyl)-2-(2,6-difluoro-phenyl)-1H-indole] |
| 921 nM | COc1ncc(-c2ccc3[nH]c(-c4c(F)cccc4F)cc3c2)c(OC)n1 [Example 93, 2-(2,6-Difluoro-phenyl)-5-(2,4-dimethoxy-pyrimidin-5-yl)-1H-indole] |
| 175 nM | Fc1cccc(F)c1-c1cc2cc(-c3ccc(C(F)(F)F)cc3Cl)ccc2[nH]1 [Example 94, 5-(2-Chloro-4-trifluoromethyl-phenyl)-2-(2,6-difluoro-phenyl)-1H-indole] |
| 994 nM | COc1ccc(-c2ccc3[nH]c(-c4c(F)cccc4F)cc3c2)c(OC)n1 [Example 95, 2-(2,6-Difluoro-phenyl)-5-(2,6-dimethoxy-pyridin-3-yl)-1H-indole] |
| 177 nM | CS(=O)(=O)c1ccc(-c2ccc3[nH]c(-c4c(F)cccc4F)cc3c2)c(C(F)(F)F)c1 [Example 96, 2-(2,6-Difluoro-phenyl)-5-(4-methanesulfonyl-2-trifluoromethyl-phenyl)-1H-indole] |
